Data reported in publication PMC9289130, “Pharmacokinetic Study of Four Major Bioactive Components of Liandan Xiaoyan Formula in Ulcerative Colitis and Control Rats Using UPLC-MS/MS” (Frontiers in Pharmacology, 2022).
Read-outs that look alike come from different tables or passages of the source.

What was measured:
[1] = Stability test of QC samples in rat serum; type: in vitro ADME; settings: n = 6
Procedure: Quality control (QC) samples at low, middle and high concentrations (61.50, 384.38, and 4,000.00 ng/ml for andrographolide; 24.00, 150.00, and 1,500.00 ng/ml for dehydroandrographolide; 6.91, 43.20, and 450.00 ng/ml for 1-methoxicabony-β-carboline; 6.30, 39.38, and 400.00 ng/ml for 4-methoxy-5-hydroxy-canthin-6-one) were also prepared by the same procedures.
Recovery was determined at three QC levels and calculated by comparing the compound standard peak areas obtained from extracted samples with post-extracted samples spiked with the compound. Matrix effects were calculated by matching spiking post-extracted blank serum samples with corresponding standard clean solutions at three concentrations of QC samples.

[2] = Pharmacokinetic study in control and DSS-induced UC rats after oral administration of LXF (serum, UPLC-MS/MS); type: in vivo, Sprague-Dawley (SD) rats; settings: for AUC(0-inf) / AUC(0-t) / Cmax / Tmax / half-life / MRT inf: male, Sprague-Dawley, rat, serum, po, 3.3 g/kg, oral LXF 3.30 g/kg, rat serum, n = 8, mean ± SD; for MRT inf: read-out: MRT0→∞
Procedure: Sixteen male Sprague-Dawley (SD) rats (220 ± 10 g) were provided from the Liaoning Changsheng Biotechnology Co., Ltd (Benxi, China; with license No. of SCXK, 2020-0001). The rats were kept in an environment (22 ± 2°C, relative humidity 50 ± 5%) under a 12-h light-dark cycle with a free diet and water for 3 days. All experiments on animals were conducted strictly under the related ethics regulations of the Committee on Use and Care of Animals of Guangzhou University of Chinese Medicine (Guangzhou, China) (No. 712052).
All rats were assigned equally and randomly to the control and model groups. The rats of the model group were free to access 4% DSS for 7 days to induce UC, and rats of the control group were given pure water ([Chen et al., 2020]). Before the pharmacokinetics study, the DSS-induced UC rats (model) were established successfully (Supplementary Material Part B).
After fasting for 12 h, the rats were orally administered LXF at a 3.30 g/kg dose according to Prescription preparation of Chinese medicine, volume 10 ([Lu et al., 2021]). Serum samples (approximately 0.5 ml) were collected from the fosse orbital vein using 1.5 ml polythene tubes before the administration and at 0.083, 0.25, 0.5, 1, 1.5, 2.5, 4, 6, 8, 12, 24, 36, and 48 h after dosing and centrifuged immediately at 3,500 rpm for 15 min. Serum was transferred into clean tubes and stored at −80°C.
100 μl of IS solution (960 ng/ml) was added to a 100 μl serum sample and vortex-mixed for 0.5 min, and then 800 μl of methanol was added and vortex-mixed for 3 min. After centrifugation at 12,000 rpm for 15 min (4°C), the supernatant of the mixture was transferred to another vial and evaporated to dryness with nitrogen purging. The residue was resolved with 100 μ of methanol, vortex-mixed for 1 min, and centrifuged at 12,000 rpm for 10 min (4°C). A 2 μl aliquot of the supernatant was injected into the UPLC-MS/MS system for analysis.
Chromatographic analysis was performed using UPLC-MS/MS, utilizing a Finnigan Surveyor auto-sampler and a Finnigan Surveyor LC pump combined with a triple quadrupole TSQ Quantum mass spectrometer electrospray ionization (ESI) interface (Thermo Fisher, Palo Alto, CA). The chromatographic separation was performed on the Waters Acquity UPLC BEH C18 column (2.1 mm × 100 mm; 1.7 µm). The mobile phase consisted of acetonitrile (A) and 0.1% formic acid (B) with a gradient elution program (0-5 min, 20% A-35% A; 5-6 min, 35% A-100% A; 6–8min, 100% A; 8–8.5 min, 100% A-20% A; 8.5–10.5 min, 20% A) at a flow rate of 0.4 ml/min. The column temperature was maintained at 40°C throughout the analysis. The injection volume was 2 μl.
Quantification was performed using multiple reaction monitoring (MRM) in the positive ionization mode, and the optimized MRM parameters of the four analytes and IS are listed in Table 1. The MRM transition, retention time (RT), and collision energy (CE) values were based on Thermo Foundation 2.0. Curtain gas pressure at 35 psi, ion source gas 1 and gas 2 at 55 psi, ion spray voltage at 5500 V, and temperature at 500°C.
Non-compartment model pharmacokinetic parameters, including the time to reach the maximum serum concentration (Tmax), the maximum serum concentration (Cmax), the elimination half-time (T1/2), the area under the serum concentration-time curve (AUC), and mean residence time (MRT), were calculated by DAS (version 3.2.8, Chinese Pharmacological Association, Anhui, China). The difference between the control and model groups was statistically analyzed using SPSS 26.0 (IBM Company, Chicago). All data in this study were subjected to a one-way analysis of variance (ANOVA) and then expressed by mean ± standard deviation (SD). LSD t-test was applied when the homogeneity of variance assumptions was satisfied; otherwise, Dunnett’s t-test was used. A p < 0.05 was considered statistically significant.

[3] = 4°C for 24 h, high QC (nominal 4,000.00 / 1,500.00 / 450.00 / 400.00 ng/ml for compounds 1-4)
[4] = 4°C for 24 h, low QC (nominal 61.50 / 24.00 / 6.91 / 6.30 ng/ml for compounds 1-4)
[5] = 4°C for 24 h, middle QC (nominal 384.38 / 150.00 / 43.20 / 39.38 ng/ml for compounds 1-4)
[6] = 25°C for 12 h, high QC (nominal 4,000.00 / 1,500.00 / 450.00 / 400.00 ng/ml for compounds 1-4)
[7] = 25°C for 12 h, low QC (nominal 61.50 / 24.00 / 6.91 / 6.30 ng/ml for compounds 1-4)
[8] = 25°C for 12 h, middle QC (nominal 384.38 / 150.00 / 43.20 / 39.38 ng/ml for compounds 1-4)
[9] = three freeze-thaw, high QC (nominal 4,000.00 / 1,500.00 / 450.00 / 400.00 ng/ml for compounds 1-4)
[10] = three freeze-thaw, low QC (nominal 61.50 / 24.00 / 6.91 / 6.30 ng/ml for compounds 1-4)
[11] = three freeze-thaw, middle QC (nominal 384.38 / 150.00 / 43.20 / 39.38 ng/ml for compounds 1-4)
[12] = −80°C for 30 days, high QC (nominal 4,000.00 / 1,500.00 / 450.00 / 400.00 ng/ml for compounds 1-4)
[13] = −80°C for 30 days, low QC (nominal 61.50 / 24.00 / 6.91 / 6.30 ng/ml for compounds 1-4)
[14] = −80°C for 30 days, middle QC (nominal 384.38 / 150.00 / 43.20 / 39.38 ng/ml for compounds 1-4)

| Stability, mean concentration found [1, 3] | Stability, mean concentration found [1, 4] | Stability, mean concentration found [1, 5] | Stability, mean concentration found [1, 6] | Stability, mean concentration found [1, 7] | Stability, mean concentration found [1, 8] | Stability, mean concentration found [1, 9] | Stability, mean concentration found [1, 10] | Stability, mean concentration found [1, 11] | Stability, mean concentration found [1, 12] | Stability, mean concentration found [1, 13] | Stability, mean concentration found [1, 14] | AUC(0-inf) ([2]; UC group (4% DSS for 7 days)) | AUC(0-t) ([2]; UC group (4% DSS for 7 days)) | Cmax ([2]; UC group (4% DSS for 7 days)) | Tmax ([2]; UC group (4% DSS for 7 days)) | half-life ([2]; UC group (4% DSS for 7 days)) | MRT inf ([2]; UC group (4% DSS for 7 days)) | AUC(0-inf) ([2]; control group) | AUC(0-t) ([2]; control group) | Compound | other results |
| --- | --- | --- | --- | --- | --- | --- | --- | --- | --- | --- | --- | --- | --- | --- | --- | --- | --- | --- | --- | --- | --- |
| 442.09 ± 15.98 ng/mL | 7.71 ± 0.12 ng/mL | 44.64 ± 3.27 ng/mL | 439.66 ± 16.78 ng/mL | 7.09 ± 0.16 ng/mL | 42.21 ± 3.37 ng/mL | 440.84 ± 17.31 ng/mL | 6.63 ± 0.51 ng/mL | 42.04 ± 2.18 ng/mL | 436.91 ± 13.57 ng/mL | 7.43 ± 0.66 ng/mL | 42.66 ± 1.92 ng/mL | 444 ± 154 ng·h/mL | 424 ± 143 ng·h/mL | 160 ± 18.9 ng/mL | 67.8 ± 13.8 min | 72 ± 24.6 min | 2.23 ± 0.63 h | 219 ± 79.2 ng·h/mL | 215 ± 78.4 ng·h/mL | COC(=O)c1nccc2c1[nH]c1ccccc12 [1-methoxicabony-β-carboline] | Cmax ([2]; control group): 129 ± 33.9 ng/mL; Tmax ([2]; control group): 41.4 ± 22.2 min; half-life ([2]; control group): 61.2 ± 25.8 min; MRT inf ([2]; control group): 1.52 ± 0.33 h; Tmax and MRT0–∞ in the UC group compared with the control group ([2]; oral LXF, p < 0.05): longer |
| 391.53 ± 10.08 ng/mL | 6.38 ± 0.41 ng/mL | 39.35 ± 4.12 ng/mL | 387.02 ± 9.84 ng/mL | 5.50 ± 0.37 ng/mL | 40.41 ± 3.15 ng/mL | 386.59 ± 20.07 ng/mL | 5.65 ± 0.12 ng/mL | 41.43 ± 0.76 ng/mL | 381.78 ± 17.23 ng/mL | 6.39 ± 0.23 ng/mL | 42.93 ± 1.44 ng/mL | 817 ± 177 ng·h/mL | 759 ± 142 ng·h/mL | 419 ± 104 ng/mL | 25.8 ± 28.2 min | 198 ± 91.2 min | 3.66 ± 1.55 h | 595 ± 117 ng·h/mL | 554 ± 74.2 ng·h/mL | COc1c(O)c(=O)n2c3ccccc3c3ccnc1c32 [4-methoxy-5-hydroxy-canthin-6-one] | Shape of the serum concentration-time curve ([2]; UC group, oral LXF): double peaks; Shape of the serum concentration-time curve ([2]; control group, oral LXF): not showed; Cmax ([2]; control group): 395 ± 97.7 ng/mL; Tmax ([2]; control group): 4.8 min; half-life ([2]; control group): 189 ± 57.6 min; MRT inf ([2]; control group): 3.59 ± 1.43 h |
| 3,915.74 ± 98.45 ng/mL | 58.54 ± 4.47 ng/mL | 383.22 ± 9.64 ng/mL | 3,896.61 ± 129.89 ng/ml | 56.68 ± 4.20 ng/mL | 399.59 ± 9.79 ng/mL | 3,923.07 ± 110.39 ng/mL | 60.13 ± 3.34 ng/mL | 396.68 ± 13.05 ng/mL | 3,904.68 ± 126.18 ng/ml | 58.97 ± 2.93 ng/mL | 370.23 ± 17.30 ng/mL | 18400 ng·h/mL | 15900 ng·h/mL | 4090 ng/mL | 41.4 ± 15.6 min | 444 ± 301 min | 7.4 ± 5.02 h | 7120 ng·h/mL | 6430 ng·h/mL | C=C1CC[C@@H]2[C@](C)(CO)[C@H](O)CC[C@@]2(C)[C@@H]1C/C=C1/C(=O)OC[C@H]1O [andrographolide] | Cmax ([2]; control group): 2310 ng/mL; Tmax ([2]; control group): 31.8 ± 12.6 min; half-life ([2]; control group): 526 ± 178 min; MRT inf ([2]; control group): 8.42 ± 2.75 h |
| 1,421.52 ± 61.75 ng/mL | 25.71 ± 1.69 ng/mL | 156.59 ± 14.58 ng/mL | 1,439.13 ± 52.46 ng/ml | 23.51 ± 0.69 ng/mL | 153.93 ± 10.00 ng/mL | 1,428.09 ± 67.73 ng/mL | 21.20 ± 2.30 ng/mL | 143.60 ± 9.61 ng/mL | 1,419.63 ± 51.60 ng/ml | 22.46 ± 2.57 ng/mL | 151.06 ± 3.31 ng/mL | 4790 ng·h/mL | 4690 ng·h/mL | 1150 ng/mL | 22.8 ± 7.8 min | 172 ± 121 min | 5.08 ± 1.53 h | 2360 ng·h/mL | 2330 ng·h/mL | C=C1CC[C@@H]2[C@](C)(CO)[C@H](O)CC[C@@]2(C)[C@H]1C/C=C1\C=COC1=O [dehydroandrographolide] | Shape of the serum concentration-time curve ([2]; UC group, oral LXF): double peaks; Shape of the serum concentration-time curve ([2]; control group, oral LXF): double peaks; Cmax ([2]; control group): 892 ± 148 ng/mL; Tmax ([2]; control group): 16.8 ± 5.4 min; half-life ([2]; control group): 137 ± 101 min; MRT inf ([2]; control group): 5.04 ± 1.96 h |
